Experimental data taken from publication PMC6812009, “Covalent Aurora A regulation by the metabolic integrator coenzyme A” (Redox Biology, 2019).

Legend:
[1] = biological target: T1, Aurora A (inactive), unphosphorylated (PP1-treated) (Homo sapiens, UniProt O14965); assay: Lanthascreen Eu Kinase FRET binding assay
T1 construct: For enzyme and DSF assays, full-length human Aurora A and Aurora B and 1–43 TPX2 were produced; made in house; host or cells: E. coli
T1 sequence (O14965 1-403): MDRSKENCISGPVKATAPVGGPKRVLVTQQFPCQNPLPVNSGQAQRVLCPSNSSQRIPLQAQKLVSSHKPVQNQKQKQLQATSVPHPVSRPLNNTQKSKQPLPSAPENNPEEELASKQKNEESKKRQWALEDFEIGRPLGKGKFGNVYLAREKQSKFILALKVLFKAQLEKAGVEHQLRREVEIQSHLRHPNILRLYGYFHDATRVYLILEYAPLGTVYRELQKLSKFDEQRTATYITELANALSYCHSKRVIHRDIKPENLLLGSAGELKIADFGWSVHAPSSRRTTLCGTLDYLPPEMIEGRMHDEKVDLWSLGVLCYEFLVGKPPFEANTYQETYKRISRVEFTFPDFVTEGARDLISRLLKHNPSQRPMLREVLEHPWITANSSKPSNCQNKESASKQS
Procedure: A Lanthascreen Eu Kinase FRET Binding Assay (Invitrogen) was employed to determine IC50 values for the interaction of Aurora A with CoA, dpCoA, ATP, and ADP. […] Recombinant Aurora A was incubated with Europium-conjugated anti-histidine tag antibody and an Alexa Fluor 647-labelled tracer, which binds to the ATP binding pocket of Aurora A. The close proximity of the anti-histidine (epitope-tag) antibody and the tracer results in a high degree of FRET (fluorescence resonance energy transfer) from the europium donor fluorophore to the Alexa Fluor 647 acceptor fluorophore. ATP-competitive inhibitors, such as CoA, displace the tracer from the active site, causing a loss of FRET signal. Assay set-up was performed as described by the manufacturer. Briefly, the time-resolved fluorescence resonance energy transfer assay (TR-FRET) was performed in black, low volume 384 well plates (Corning). Each well contained 5 nM kinase, 2 nM Eu-anti-His antibody and 10 nM kinase tracer 236 in kinase buffer A (50 mM Hepes pH 7.5, 10 mM MgCl2, 1 mM […], 0.01% (v/v) Brij-35), varying amounts of CoA, dpCoA, ATP, and ADP. The reaction mix was incubated for 1h at room temperature. The signal was measured at 665/620 nm emission ratio using BMG LABTECH plate reader (PHERAstar). All assays were performed using duplicates. The 11-point response curves were generated using GraphPad Prism software from the inhibition data generated.

mouse oocytes = assay: Microinjection of mouse oocytes, spindle formation and chromosome alignment; type: cell-based; details: 17 h after GV release; for Disruption of bipolar spindle formation and chromosome alignment: injected with 3 mM compound
Procedure: Mouse oocytes arrested at the GV stage were injected with different concentrations of CoA (0.15–5 mM). Since the commercial preparation of CoA used for microinjection contained 3 mol of lithium ions per mole of CoA, control oocytes were injected with an equivalent amount of LiCl. In a separate study, oocytes were injected with 3 mM CoA, ADP, AMP, 3′-5′-ADP and pantetheine. To examine the effect of injected compounds on spindle formation, oocytes were fixed 17 h after GV release and stained for alpha-tubulin (green) and DNA (blue).

IGF-1R = IGF-1R (Homo sapiens, UniProt P08069); assay: Kinase profiling screen (radioactive filter-binding assay); type: biochemical; details: 100 μM compound, 5 μM ATP; read-out: Kinase activity, % of activity in the absence of inhibitor
Chain of IGF-1R (P08069 31-1367): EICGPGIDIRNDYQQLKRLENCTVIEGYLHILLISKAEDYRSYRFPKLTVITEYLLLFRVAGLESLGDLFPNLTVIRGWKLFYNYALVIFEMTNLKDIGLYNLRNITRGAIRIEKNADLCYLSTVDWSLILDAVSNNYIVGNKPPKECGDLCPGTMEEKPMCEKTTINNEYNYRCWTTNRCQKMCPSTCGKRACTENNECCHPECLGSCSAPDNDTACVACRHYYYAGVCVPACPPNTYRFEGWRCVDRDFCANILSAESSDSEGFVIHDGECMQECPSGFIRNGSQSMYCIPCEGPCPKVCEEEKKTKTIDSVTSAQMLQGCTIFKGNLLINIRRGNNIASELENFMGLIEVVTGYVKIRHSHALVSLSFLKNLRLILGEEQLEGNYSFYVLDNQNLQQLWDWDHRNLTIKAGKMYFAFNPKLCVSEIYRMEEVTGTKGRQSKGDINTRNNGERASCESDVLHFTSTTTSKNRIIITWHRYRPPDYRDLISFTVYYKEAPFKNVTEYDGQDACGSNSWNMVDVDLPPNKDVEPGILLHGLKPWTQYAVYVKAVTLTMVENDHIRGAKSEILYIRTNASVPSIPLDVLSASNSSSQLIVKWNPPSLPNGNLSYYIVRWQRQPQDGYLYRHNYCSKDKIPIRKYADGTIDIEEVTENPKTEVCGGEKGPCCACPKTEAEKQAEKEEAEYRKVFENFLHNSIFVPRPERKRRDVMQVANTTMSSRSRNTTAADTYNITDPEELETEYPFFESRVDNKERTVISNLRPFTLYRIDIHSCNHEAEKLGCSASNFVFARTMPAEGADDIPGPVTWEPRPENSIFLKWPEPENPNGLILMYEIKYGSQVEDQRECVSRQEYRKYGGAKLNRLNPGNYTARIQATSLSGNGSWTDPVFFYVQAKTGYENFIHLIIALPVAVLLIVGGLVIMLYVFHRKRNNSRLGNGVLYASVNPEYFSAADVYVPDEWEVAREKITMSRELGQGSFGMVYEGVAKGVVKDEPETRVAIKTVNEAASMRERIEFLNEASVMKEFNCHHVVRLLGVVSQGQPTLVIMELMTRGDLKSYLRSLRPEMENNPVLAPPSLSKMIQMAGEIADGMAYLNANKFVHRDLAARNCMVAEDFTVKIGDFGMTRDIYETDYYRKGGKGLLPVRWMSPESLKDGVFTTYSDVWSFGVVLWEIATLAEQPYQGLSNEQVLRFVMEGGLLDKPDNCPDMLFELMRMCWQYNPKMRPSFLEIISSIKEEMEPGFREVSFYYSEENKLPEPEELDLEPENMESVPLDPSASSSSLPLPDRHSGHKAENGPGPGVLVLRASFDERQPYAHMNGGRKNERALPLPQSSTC
Outline: (§1)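 CoA, dpCoA and ADP were each tested in vitro, in duplicate, at 100 μM final concentration as part of a 117-kinase panel. Recombinant kinases were used with model substrates and optimal ATP concentrations.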

IR = IR (Homo sapiens, UniProt P06213); assay: as above; type: biochemical; details: 100 μM compound, 20 μM ATP; read-out: Kinase activity, % of activity in the absence of inhibitor
Chain of IR (P06213 28-1382): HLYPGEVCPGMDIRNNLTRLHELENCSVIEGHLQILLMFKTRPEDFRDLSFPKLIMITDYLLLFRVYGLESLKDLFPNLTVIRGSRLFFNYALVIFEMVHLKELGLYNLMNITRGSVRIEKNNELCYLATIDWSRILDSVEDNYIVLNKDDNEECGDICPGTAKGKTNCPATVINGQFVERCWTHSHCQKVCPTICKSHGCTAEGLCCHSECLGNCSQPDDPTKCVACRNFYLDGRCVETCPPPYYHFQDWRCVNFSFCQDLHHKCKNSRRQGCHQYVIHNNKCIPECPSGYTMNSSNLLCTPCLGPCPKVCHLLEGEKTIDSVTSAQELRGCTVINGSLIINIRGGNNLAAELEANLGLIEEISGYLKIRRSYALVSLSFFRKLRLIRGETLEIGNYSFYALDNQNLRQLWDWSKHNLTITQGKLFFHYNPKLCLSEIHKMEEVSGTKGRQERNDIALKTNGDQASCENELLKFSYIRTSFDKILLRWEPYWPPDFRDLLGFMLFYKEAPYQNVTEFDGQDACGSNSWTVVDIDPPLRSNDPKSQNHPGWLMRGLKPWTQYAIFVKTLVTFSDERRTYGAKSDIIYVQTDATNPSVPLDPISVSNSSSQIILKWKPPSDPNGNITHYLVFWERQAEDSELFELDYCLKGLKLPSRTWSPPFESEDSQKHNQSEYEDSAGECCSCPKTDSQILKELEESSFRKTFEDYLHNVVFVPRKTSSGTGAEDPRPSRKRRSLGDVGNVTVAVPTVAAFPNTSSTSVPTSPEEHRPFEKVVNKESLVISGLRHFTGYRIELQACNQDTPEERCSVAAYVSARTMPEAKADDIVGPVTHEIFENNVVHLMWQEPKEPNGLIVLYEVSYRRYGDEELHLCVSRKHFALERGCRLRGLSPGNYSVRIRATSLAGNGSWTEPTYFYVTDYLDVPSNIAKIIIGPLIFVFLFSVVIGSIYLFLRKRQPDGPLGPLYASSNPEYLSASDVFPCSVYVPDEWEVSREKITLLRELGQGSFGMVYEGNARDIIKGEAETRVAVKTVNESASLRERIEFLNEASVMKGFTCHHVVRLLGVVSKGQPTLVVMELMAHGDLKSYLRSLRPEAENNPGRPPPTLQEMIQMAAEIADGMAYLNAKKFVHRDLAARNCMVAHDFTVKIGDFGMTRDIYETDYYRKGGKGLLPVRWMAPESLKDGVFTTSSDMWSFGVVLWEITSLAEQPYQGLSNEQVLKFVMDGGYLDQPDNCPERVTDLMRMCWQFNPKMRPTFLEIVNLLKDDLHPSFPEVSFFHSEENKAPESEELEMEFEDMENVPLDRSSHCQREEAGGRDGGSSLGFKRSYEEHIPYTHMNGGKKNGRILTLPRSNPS
Outline: as §1

IRR = IRR (Homo sapiens, UniProt P14616); assay: as above; type: biochemical; details: 100 μM compound, 5 μM ATP; read-out: Kinase activity, % of activity in the absence of inhibitor
Chain of IRR (P14616 27-1297): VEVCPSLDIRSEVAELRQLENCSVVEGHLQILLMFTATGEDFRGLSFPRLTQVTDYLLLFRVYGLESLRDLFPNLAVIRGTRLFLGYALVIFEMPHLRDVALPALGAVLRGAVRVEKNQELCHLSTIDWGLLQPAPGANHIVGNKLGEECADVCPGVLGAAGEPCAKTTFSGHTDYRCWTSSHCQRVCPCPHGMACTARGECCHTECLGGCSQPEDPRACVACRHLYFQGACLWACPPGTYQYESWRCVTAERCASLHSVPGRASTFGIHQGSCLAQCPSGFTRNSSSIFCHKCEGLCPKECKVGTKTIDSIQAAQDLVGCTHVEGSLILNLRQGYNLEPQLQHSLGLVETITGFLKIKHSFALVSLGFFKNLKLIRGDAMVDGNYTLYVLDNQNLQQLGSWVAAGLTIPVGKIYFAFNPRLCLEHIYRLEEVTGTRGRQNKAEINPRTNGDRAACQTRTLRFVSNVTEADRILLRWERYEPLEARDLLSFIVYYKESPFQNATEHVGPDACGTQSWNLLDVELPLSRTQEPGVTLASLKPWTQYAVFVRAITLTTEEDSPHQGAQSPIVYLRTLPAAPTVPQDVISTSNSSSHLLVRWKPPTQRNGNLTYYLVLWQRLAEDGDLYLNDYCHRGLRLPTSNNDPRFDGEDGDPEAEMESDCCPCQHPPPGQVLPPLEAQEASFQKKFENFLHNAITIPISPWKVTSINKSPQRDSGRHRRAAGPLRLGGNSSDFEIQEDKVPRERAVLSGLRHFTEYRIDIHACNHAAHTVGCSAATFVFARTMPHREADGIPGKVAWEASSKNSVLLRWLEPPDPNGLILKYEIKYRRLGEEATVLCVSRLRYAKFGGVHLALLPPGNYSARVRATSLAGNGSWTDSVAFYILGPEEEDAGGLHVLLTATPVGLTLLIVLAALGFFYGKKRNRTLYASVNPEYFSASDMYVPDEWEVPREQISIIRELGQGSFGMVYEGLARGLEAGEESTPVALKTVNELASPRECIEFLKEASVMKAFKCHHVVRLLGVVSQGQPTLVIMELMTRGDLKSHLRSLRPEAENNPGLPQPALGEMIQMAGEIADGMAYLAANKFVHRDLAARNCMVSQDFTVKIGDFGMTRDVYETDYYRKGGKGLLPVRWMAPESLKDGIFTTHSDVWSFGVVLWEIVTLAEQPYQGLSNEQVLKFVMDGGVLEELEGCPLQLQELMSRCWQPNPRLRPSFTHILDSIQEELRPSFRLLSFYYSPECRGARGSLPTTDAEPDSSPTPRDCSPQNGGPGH
Outline: as §1

TrkA = TrkA (Homo sapiens, UniProt P04629); assay: as above; type: biochemical; details: 100 μM compound, 20 μM ATP; read-out: Kinase activity, % of activity in the absence of inhibitor
Chain of TrkA (P04629 33-796): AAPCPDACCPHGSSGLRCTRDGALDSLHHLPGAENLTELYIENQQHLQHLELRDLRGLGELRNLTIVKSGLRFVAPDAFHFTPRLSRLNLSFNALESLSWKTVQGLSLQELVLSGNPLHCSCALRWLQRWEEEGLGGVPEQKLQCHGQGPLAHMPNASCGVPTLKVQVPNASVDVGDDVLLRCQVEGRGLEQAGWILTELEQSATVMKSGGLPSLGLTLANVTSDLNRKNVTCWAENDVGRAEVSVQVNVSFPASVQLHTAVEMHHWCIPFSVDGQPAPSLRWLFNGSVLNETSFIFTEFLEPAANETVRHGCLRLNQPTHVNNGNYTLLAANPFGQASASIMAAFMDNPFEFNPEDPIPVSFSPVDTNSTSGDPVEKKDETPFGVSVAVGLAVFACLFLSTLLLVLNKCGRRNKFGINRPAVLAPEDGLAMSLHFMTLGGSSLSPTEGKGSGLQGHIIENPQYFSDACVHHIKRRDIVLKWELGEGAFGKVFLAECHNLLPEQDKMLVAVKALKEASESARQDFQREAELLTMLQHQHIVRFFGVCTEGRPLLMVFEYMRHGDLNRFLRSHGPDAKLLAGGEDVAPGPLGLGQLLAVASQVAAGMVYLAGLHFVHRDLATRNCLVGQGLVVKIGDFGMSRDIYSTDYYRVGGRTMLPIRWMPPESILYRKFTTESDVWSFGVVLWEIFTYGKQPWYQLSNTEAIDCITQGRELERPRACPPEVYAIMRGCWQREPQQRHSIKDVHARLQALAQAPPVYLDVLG
Outline: as §1

C290A Aurora A = biological target: T2, C290A Aurora A (Homo sapiens, UniProt O14965, C290A); assay: Thermal shift assay (differential scanning fluorimetry); type: binding; details: 5 mM ATP or 5 mM CoA
T2 construct: For enzyme and DSF assays, full-length human Aurora A and Aurora B and 1–43 TPX2 were produced; made in house; host or cells: E. coli BL21 (DE3) pLysS
T2 sequence (O14965 whole entry C290A): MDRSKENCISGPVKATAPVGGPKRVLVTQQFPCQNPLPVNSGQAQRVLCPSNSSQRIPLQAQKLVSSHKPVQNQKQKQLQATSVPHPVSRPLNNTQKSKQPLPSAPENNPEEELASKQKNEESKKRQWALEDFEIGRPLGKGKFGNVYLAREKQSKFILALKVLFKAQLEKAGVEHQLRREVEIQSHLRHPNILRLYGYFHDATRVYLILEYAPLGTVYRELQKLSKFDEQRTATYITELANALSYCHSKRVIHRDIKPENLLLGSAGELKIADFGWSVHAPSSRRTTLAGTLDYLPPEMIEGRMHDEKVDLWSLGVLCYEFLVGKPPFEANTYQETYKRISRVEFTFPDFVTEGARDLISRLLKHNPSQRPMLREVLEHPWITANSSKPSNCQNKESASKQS
Procedure: (§2) Asp274Asn and Thr217Glu Aurora A mutants were generated by PCR-site directed mutagenesis, expressed and purified as described previously. Cys290Ala Aurora A was generated using standard procedures, and purified as described.
(§3) Thermal-shift assays were performed with a StepOnePlus Real-Time PCR machine (Life Technologies) using Sypro-Orange dye (Invitrogen) and thermal ramping (0.3 °C in step intervals between 25 and 94 °C). All proteins were diluted to a final concentration of 5 μM in 50 mM Tris/HCl, pH 7.4 and 100 mM NaCl in the presence or absence of the indicated concentrations of ligand (final DMSO concentration no higher than 4 % v/v). CoA, dephosphoCoA or kinase inhibitors diluted from 10 mM DMSO stocks were assayed as described previously. Normalized data were processed using the Boltzmann equation to generate sigmoidal denaturation curves, and average Tm/ΔTm values calculated as previously described using GraphPad Prism software.

[2] = biological target: T3, WT Aurora A (T288 phosphorylated, active) (Homo sapiens, UniProt O14965); assay: as above; type: binding; details: 5 mM ATP, 5 mM CoA or 0.1 mM MLN8237; for CoA dependent on non-reducing conditions
T3 construct: Bacterially expressed full-length His-Aurora A was used to determine the IC50 value for CoA; made in house; host or cells: E. coli BL21 (DE3) pLysS
T3 sequence (O14965 1-403): T1 sequence (O14965 1-403)
Procedure: as §2, §3

SMILES	IC50 [1] [µM]	Disruption of bipolar spindle formation and chromosome alignment (mouse oocytes)	activity at 100 µM (IGF-1R) [%]	activity at 100 µM (IR) [%]	activity at 100 µM (IRR) [%]	activity at 100 µM (TrkA) [%]	Ligand binding / thermal stabilization (C290A Aurora A)	Change in thermal stability (ΔTm) [2]	Number of oocytes with atypical spindles and misaligned chromosomes (mouse oocytes; microinjection of 0.15–5 mM CoA, dose-dependent)
Nc1ncnc2c1ncn2C1OC(COP(=O)(O)OP(=O)(O)O)C(O)C1O (stereo not drawn) [ADP]	1.3	not							
CC(C)(COP(=O)(O)OP(=O)(O)OCC1OC(n2cnc3c(N)ncnc32)C(O)C1O)C(O)C(=O)NCCC(=O)NCCS (stereo not drawn) [dpCoA, dephospho-CoA]	> 100								
CC(C)(COP(=O)(O)OP(=O)(O)OC[C@H]1O[C@@H](n2cnc3c(N)ncnc32)[C@H](O)[C@@H]1OP(=O)(O)O)[C@@H](O)C(=O)NCCC(=O)NCCS [CoA, Coenzyme A]	0.28	disrupted both bipolar spindle formation and chromosome alignment	93	100	92	104	deficient in CoA-induced thermal stabilization	marked change in thermal stability	markedly increased
